Assay results published in patent US5786137A, “Method for assaying components in an enzyme-protein substrate system” (Research Foundation of State University of New York, priority 1996, dated 1998).

Assays:
[1] = system: plasmin (binding to and degradation of FITC-fibrinogen); experiment: Plasmin-mediated fibrinogenolysis assay: fluorescence dequenching of FITC-fibrinogen; format: biochemical
Description: To illustrate plasmin-mediated fibrinogenolysis into degradation products, 10 nM of plasmin was mixed for about 5 seconds in the reaction buffer containing 250 nM FITC-fibrinogen. […] The action of plasmin on FITC-fibrinogen produced an immediate large increase in fluorescence intensity (dequenching) in a plasmin-dependent manner (FIG. 4). The detection limit has been found under routine conditions to be at least 10 picomolar plasmin.
In that competition, some plasmin was able to bind fibrinogen as indicated by the initial rate of dequenching.

[2] = system: fibrinogen (FITC-fibrinogen polymerized by thrombin); settings: 1 U/ml thrombin
Description: Fibrinogen was labeled with FITC using a 0.1M sodium bicarbonate buffer. After stopping the reaction with hydroxylamine (0.15M final concentration), the FITC-fibrinogen was dialyzed extensively before storage. The buffer for the polymerization reaction comprised either 0.1M NaCl, 0.05M Tris-HCl, 5 mM CaCl2 ("buffer 1") or 0.3M NaCl, 0.05M Tris-HC1, 5 mM CaCl2 ("buffer 2"). Cuvettes were incubated with 10 μM bovine serum albumin for 30 minutes to minimize adsorption of substrate to the cuvette walls.
In a series of reactions to produce fibrinogen polymerization into fibrin fibers, thrombin (final concentrations ranging from 0.1 U/ml, 0.25 U/ml, 0.5 U/ml and 1 U/ml) was mixed for about 5 seconds in either buffer 1 or buffer 2 containing a dilute FITC-fibrinogen (<40 nM) solution. Polymerization was monitored by exciting the reaction mixture with blue light (488 nm) and monitoring the fluorescence emission at 515 nm using a fluorimeter.

| Compound | progression of fibrinogenolysis (cessation of dequenching) ([1]; addition of 10 mM ε-amino caproic acid during fibrinogenolysis) | inhibition of dequenching ([1]; excess ε-amino caproic acid added after plasmin-mediated fibrinogenolysis was initiated (FIG. 8)) | dequenching rate ([1]; plasmin preincubated with 10 mM ε-amino caproic acid before addition of fluorescent-labeled fibrinogen (FIG. 7)) | thrombin-induced quenching prevented ([2]; 100 μM GPRP added before polymerization) | rate and extent of quenching associated with polymerization ([2]; 0.1, 10 and 100 μM GPRP) |
| --- | --- | --- | --- | --- | --- |
| NCCCCCC(=O)O [ε-amino caproic acid] | immediately inhibited | dose-dependent inhibition | greatly reduced | – | – |
| Gly-Pro-Arg-Pro [GPRP] | – | – | – | Over 80% | reduced in a dose-dependent manner |
